# Laboratory results reported in publication PMC12257540, “From Inhibitors to PET: SAR-Based Development of [^18F]SK60 for mIDH1 Imaging” (Journal of Medicinal Chemistry, 2025).
# Values joined by “and” are separate entries in the source; they are usually repeats but may differ in a detail not shown here. Equal values may be shown once.
# Columns and labels:
# wtIDH1 = biological target: T1, wtIDH1 (Homo sapiens, UniProt O75874); assay: IDH1 enzyme assay for determination of inhibitory potency (diaphorase/resazurin); format: biochemical; settings: 1 h preincubation, 1 h reaction
# T1 construct: purchased abcam ab113858
# Procedure: IDH1 enzyme assay is a modified version of the assay used for mIDH1. With the conversion of isocitrate to α-KG, this enzyme stoichiometrically converts NADP to NADPH. It produces NADPH, which directly couples to the diaphorase/resazurin system, and the resorufin production can be measured. The protocols for the determination of inhibition of IDH1 were performed as described by Wang et al. (2013). The IDH1 (ab113858) was purchased from abcam (Cambridge, UK).
# Briefly, IDH1 assays were conducted in 50 μL buffer (20 mM TRIS buffer (pH = 7.5), 150 mM NaCl, 10 mM MgCl2, 0.05% BSA and 4 mM β-mercaptoethanol) containing 50 μM NADP, 70 μM DL-isocitrate, and 0.04 μg/mL IDH1 enzyme (reaction time 1 h at room temperature). For inhibition assays, triplicate samples of the ligands in the concentration range from 10^–4 M to 10^–10 M were incubated with the IDH1 for 1 h before the addition of DL-isocitrate and NADP to initiate the reaction together with the direct detection system comprised of 20 μg/mL diaphorase and 4 μM resazurin. The reaction was terminated with the addition of 25 μL of 2% SDS and read on a Synergy H1 microplate reader at Ex544/Em590. The data were imported into GraphPad Prism, and the IC50 values were calculated with a standard dose–response curve fitting (Figure S2, SI).
# IDH1R132H = biological target: T2, IDH1R132H (Homo sapiens, UniProt O75874, R132H); assay: Mutant IDH1 enzyme assay for determination of inhibitory potency (diaphorase/resazurin); format: biochemical; settings: recombinant IDH1R132H, 30 min preincubation, 60 min reaction
# T2 construct: purchased BPS Bioscience BPS-79376
# Procedure: Determination of the activity and inhibition of mutant IDH1 recombinant protein, IDH1R132H, is based on the reduction of α-KG acid to D-2-HG accompanied by a concomitant oxidation of NADPH to NADP. The amount of NADPH remaining at the end of the reaction time is measured in a secondary diaphorase/resazurin reaction, in which the NADPH is consumed in a 1/1 molar ratio with the conversion of resazurin to the highly fluorescent resorufin. For the determination of the inhibitory potential of ligands, the IDH1R132H Assay Kit (BPS-79376, BPS Bioscience, San Diego, CA) was used. […] For inhibition assays, triplicate samples of the ligands in the concentration range from 10^–5 M to 10^–10 M were incubated with the enzyme for 30 min before the addition of α-KG and NADPH to initiate the reaction. The reaction ran for 60 min at room temperature and was terminated with the addition of 25 μL of detection buffer (36 μg/mL diaphorase and […] resazurin) to 50 μL of the reaction solution. The conversion of resazurin to resorufin by diaphorase was measured fluorometrically at Ex544/Em590 (Synergy H1 microplate reader, BioTek, Winooski, VT). The data were imported into GraphPad Prism 4.1 (GraphPad Inc.; La Jolla; CA), and the IC50 values were calculated with a standard dose–response curve fitting (Figure S2, SI).
# T2 sequence (O75874 whole entry R132H): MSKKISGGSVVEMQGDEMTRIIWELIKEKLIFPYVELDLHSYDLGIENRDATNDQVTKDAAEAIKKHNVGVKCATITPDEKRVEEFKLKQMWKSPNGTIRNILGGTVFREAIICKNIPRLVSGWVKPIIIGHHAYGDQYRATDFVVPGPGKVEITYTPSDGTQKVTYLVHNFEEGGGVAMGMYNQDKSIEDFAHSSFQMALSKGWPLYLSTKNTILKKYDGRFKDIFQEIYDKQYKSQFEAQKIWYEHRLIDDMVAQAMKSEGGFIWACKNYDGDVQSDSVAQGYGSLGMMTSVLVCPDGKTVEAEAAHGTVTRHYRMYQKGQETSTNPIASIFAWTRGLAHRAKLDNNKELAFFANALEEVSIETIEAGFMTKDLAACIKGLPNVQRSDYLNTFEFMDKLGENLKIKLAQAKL
# T1 sequence (O75874 whole entry): as the sequence (O75874 whole entry R132H) above, with H132R counted along it
Structure (SMILES),IC50 (wtIDH1) [µM],IC50 (IDH1R132H)
CC1(C)CN(C(=O)c2ccc[nH]2)Cc2c(C(=O)NC34CC5CC(CC(C5)C3)C4)nn(Cc3ccc(F)cc3)c21 [Compound 33],> 10,0.163 ± 0.0396 µM
CC1(C)CN(C(=O)c2ccc[nH]2)Cc2c(C(=O)N3CCCCC3)nn(Cc3ccc(F)cc3)c21 [Compound 35],> 10,> 1 µM
CC1(C)CN(C(=O)c2ccc[nH]2)Cc2c(C(=O)NC3CCCC3)nn(Cc3ccc(F)cc3)c21 [Compound 36],> 10,5.9 µM
CC1(C)CN(C(=O)c2ccc[nH]2)Cc2c(C(=O)N3CCOCC3)nn(Cc3ccc(F)cc3)c21 [Compound 37],> 10,> 10 µM
CCCOCCNC(=O)c1nn(Cc2ccc(F)cc2)c2c1CN(C(=O)c1ccc[nH]1)CC2(C)C [Compound 39],> 10,> 5 µM
"Cc1cccc(NC(=O)c2nn(CCCCF)c3c2CN(C(=O)c2ccc[nH]2)CC3(C)C)c1 [Compound 47, 1-(4-fluorobutyl)-7,7-dimethyl-5-(1H-pyrrole-2-carbonyl)-N-(m-tolyl)-4,5,6,7-tetrahydro-1H-pyrazolo[4,3-c]pyridine-3-carboxamide]",> 10,0.571 µM
"Cc1cccc(NC(=O)c2nn(Cc3ccc(F)cc3)c3c2CN(C(=O)C(C)(C)CF)CC3(C)C)c1 [Compound 60, 5-(3-fluoro-2,2-dimethylpropanoyl)-1-(4-fluorobenzyl)-7,7-dimethyl-N-(m-tolyl)-4,5,6,7-tetrahydro-1H-pyrazolo[4,3-c]pyridine-3-carboxamide]",,1.3 µM

# Continued, values first:
IC50 (wtIDH1) [µM],IC50 (IDH1R132H),Structure (SMILES)
> 10,0.0247 µM and 0.064 µM,"CC1(C)CN(C(=O)c2ccc[nH]2)Cc2c(C(=O)Nc3ccccc3)nn(Cc3ccc(F)cc3)c21 [Compound 23, 1-(4-fluorobenzyl)-7,7-dimethyl-N-phenyl-5-(1H-pyrrole-2-carbonyl)-4,5,6,7-tetrahydro-1H-pyrazolo[4,3-c]pyridine-3-carboxamide]"
,0.196 µM,"CC1(C)CN(C(=O)c2ccc[nH]2)Cc2c(C(=O)Nc3ccccc3F)nn(Cc3ccc(F)cc3)c21 [Compound 27, 1-(4-fluorobenzyl)-N-(2-fluorophenyl)-7,7-dimethyl-5-(1H-pyrrole-2-carbonyl)-4,5,6,7-tetrahydro-1H-pyrazolo[4,3-c]pyridine-3-carboxamide]"
> 10,0.631 µM and 0.648 µM,"CC1(C)CN(C(=O)c2ccc[nH]2)Cc2c(C(=O)Nc3cccnc3)nn(Cc3ccc(F)cc3)c21 [Compound 30, 1-(4-fluorobenzyl)-7,7-dimethyl-N-(pyridin-3-yl)-5-(1H-pyrrole-2-carbonyl)-4,5,6,7-tetrahydro-1H-pyrazolo[4,3-c]pyridine-3-carboxamide]"
> 10,> 10 µM,CN(C)C(=O)c1nn(Cc2ccc(F)cc2)c2c1CN(C(=O)c1ccc[nH]1)CC2(C)C [Compound 41]
> 10,5.02 µM,CC1(C)CN(C(=O)c2ccc[nH]2)Cc2c(C(N)=O)nn(Cc3ccc(F)cc3)c21 [Compound 42]
